Converted amounts (≈) assume the structure as drawn.
Assays:
Type in all cases: functional
[1] = system: Staphylococcus aureus; test: Antibacterial activity against Staphylococcus aureus ATCC 6538 assessed as bacterial growth inhibition by broth microdilution method
[2] = system: Staphylococcus aureus; test: Antibacterial activity against methicillin-resistant Staphylococcus aureus SC41993 assessed as bacterial growth inhibition by broth microdilution method
[3] = system: Escherichia coli; test: Antibacterial activity against Escherichia coli ATCC 25922 assessed as bacterial growth inhibition by broth microdilution method
[4] = system: Bacillus subtilis; test: Antibacterial activity against Bacillus subtilis BS01 assessed as bacterial growth inhibition by broth microdilution method
[5] = system: Streptococcus agalactiae; test: Antibacterial activity against Streptococcus agalactiae ATCC 13813 assessed as bacterial growth inhibition by broth microdilution method
[6] = system: Bacillus amyloliquefaciens; test: Antibacterial activity against Bacillus amyloliquefaciens GDMCC 60233 assessed as bacterial growth inhibition by broth microdilution method
[7] = system: Streptococcus iniae; test: Antibacterial activity against Streptococcus iniae SC41992 assessed as bacterial growth inhibition by broth microdilution method
[8] = system: Paracidovorax citrulli; test: Antibacterial activity against Acidovorax citrulli SC42000 assessed as bacterial growth inhibition by broth microdilution method
[9] = system: Dickeya chrysanthemi; test: Antibacterial activity against Dickeya chrysanthemi SC41999 assessed as bacterial growth inhibition by broth microdilution method
[10] = system: Micrococcus luteus; test: Antibacterial activity against Micrococcus luteus SC41991 assessed as bacterial growth inhibition by broth microdilution method
[11] = system: Candida albicans; test: Antifungal activity against Candida albicans assessed as fungal growth inhibition
[12] = system: Pseudomonas aeruginosa; test: Antibacterial activity against Pseudomonas aeruginosa ATCC 9027 assessed as bacterial growth inhibition by broth microdilution method

Compound	MIC [1] [µg/mL]	MIC [2] [µg/mL]	MIC [3] [µg/mL]	MIC [4] [µg/mL]	MIC [5] [µg/mL]	MIC [6] [µg/mL]	MIC [7] [µg/mL]	MIC [8] [µg/mL]	MIC [9] [µg/mL]	MIC [10] [µg/mL]	MIC [11] [µg/mL]	MIC [12] [µg/mL]
GENTAMICIN SULFATE	1.3	0.62	0.62	0.62	0.62	0.62	1.3	0.1	0.1	–	–	–
CN[C@H](CC(C)C)C(=O)N[C@H]1C(=O)N[C@@H](CC(N)=O)C(=O)N[C@H]2C(=O)N[C@H]3C(=O)N[C@H](C(=O)N[C@H](C(=O)O)c4cc(O)cc(O)c4-c4cc3ccc4O)[C@H](O)c3ccc(c(Cl)c3)Oc3cc2cc(c3O[C@@H]2O[C@H](CO)[C@@H](O)[C@H](O)[C@H]2O[C@H]2C[C@](C)(N)[C@H](O)[C@H](C)O2)Oc2ccc(cc2Cl)[C@H]1O [VANCOMYCIN]	2.5 (≈ 1.73 µM)	2.5 (≈ 1.73 µM)	0.31 (≈ 0.214 µM)	0.31 (≈ 0.214 µM)	2.5 (≈ 1.73 µM)	0.31 (≈ 0.214 µM)	1.25 (≈ 0.863 µM)	0.1 (≈ 0.069 µM)	0.1 (≈ 0.069 µM)	1.25 (≈ 0.863 µM)	–	–
COC(=O)CC(=O)[C@@H]1[C@H]2[C@H](Oc3ccc(CC(N)=O)cc3)[C@H]3[C@@H](C[C@H](C)C[C@@H]3C)[C@@H]2C(C)=C2[C@@H](C)C(C)=C[C@@]21C	> 100	> 100	> 100	100 (≈ 183 µM)	100 (≈ 183 µM)	100 (≈ 183 µM)	> 100	–	–	–	–	–
CC(=O)N1CCN(c2ccc(OCC3COC(Cn4ccnc4)(c4ccc(Cl)cc4Cl)O3)cc2)CC1 (centres undefined) [KETOCONAZOLE]	–	–	–	–	–	–	–	–	–	–	1.6 (≈ 3.01 µM)	–
O=C(O)c1cn(C2CC2)c2cc(N3CCNCC3)c(F)cc2c1=O [CIPROFLOXACIN]	–	–	–	–	–	–	–	–	–	–	–	0.62 (≈ 1.87 µM)
CC1=C[C@@]2(C)[C@@H]3C(=O)[C@@]45C(=O)N[C@@](O)(Cc6ccc(cc6)O[C@@H]6[C@H]7[C@@H](C[C@H](C)C[C@@H]7C)[C@H]1[C@H]63)[C@H]4CC=C(C)[C@@H]25	> 100	> 100	100 (≈ 189 µM)	100 (≈ 189 µM)	100 (≈ 189 µM)	100 (≈ 189 µM)	100 (≈ 189 µM)	–	–	–	–	–
CC1=C[C@@]2(C)C(=C(C)[C@H]3[C@@H]4C[C@H](C)C[C@H](C)[C@H]4[C@H]4Oc5ccc(cc5)C[C@@]5(O)C=C(C(=O)N5)C(=O)[C@H]2[C@@H]43)[C@H]1C	0.8 (≈ 1.52 µM)	0.4 (≈ 0.758 µM)	0.2 (≈ 0.379 µM)	0.2 (≈ 0.379 µM)	0.4 (≈ 0.758 µM)	0.4 (≈ 0.758 µM)	0.4 (≈ 0.758 µM)	> 100	> 100	1.6 (≈ 3.03 µM)	25 (≈ 47.4 µM)	> 100
CO[C@@H]1/C2=C(\O)[C@H]3[C@H]4[C@H](Oc5ccc(cc5)C[C@]1(O)NC2=O)[C@H]1[C@@H](C[C@H](C)C[C@@H]1C)[C@@H]4C(C)=C1[C@@H](C)C(C)=C[C@@]13C	0.4 (≈ 0.715 µM)	0.2 (≈ 0.357 µM)	0.1 (≈ 0.179 µM)	0.2 (≈ 0.357 µM)	0.2 (≈ 0.357 µM)	0.2 (≈ 0.357 µM)	0.4 (≈ 0.715 µM)	> 100	> 100	1.6 (≈ 2.86 µM)	13 (≈ 23.2 µM)	> 100

Reference: ChEMBL document CHEMBL5385931, “Microascones, Decahydrofluorene-Class Alkaloids from the Marine-Derived Fungus Microascus sp. SCSIO 41821” (J Nat Prod, 2024)
